Measurements from patent US9255090B2, “Heterocyclyl derivatives and their use as prostaglandin D2 receptor modulators” (Actelion Pharmaceuticals Ltd., priority 2012, dated 2016).

Key:
[1] = tested on: eosinophils; assay: Eosinophil shape change assay with human plasma; type: cell-based; conditions: Homo sapiens, Eosinophil, human plasma (50%), PGD2 100 nM activation, antagonistic activity
How it was run: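 Human polymorphonuclear cells stained with anti-CD49d-APC, combined with compound-preincubated human plasma (50% of final volume, 4×10^6 cells/ml) for 10 min at 37° C., then stimulated 5 min with 100 nM PGD2 and fixed. Flow cytometry scored percent eosinophils with increased forward scatter.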

[2] = molecular target: hCRTH2 receptor (Homo sapiens (Human), UniProt Q9Y5Y4); assay: hCRTH2 receptor membranes radioligand (3H-PGD2) displacement assay; type: binding; conditions: 3H-PGD2 radioligand displacement, HEK293-hCRTH2 membranes
Sequence of hCRTH2 receptor (Q9Y5Y4 whole entry): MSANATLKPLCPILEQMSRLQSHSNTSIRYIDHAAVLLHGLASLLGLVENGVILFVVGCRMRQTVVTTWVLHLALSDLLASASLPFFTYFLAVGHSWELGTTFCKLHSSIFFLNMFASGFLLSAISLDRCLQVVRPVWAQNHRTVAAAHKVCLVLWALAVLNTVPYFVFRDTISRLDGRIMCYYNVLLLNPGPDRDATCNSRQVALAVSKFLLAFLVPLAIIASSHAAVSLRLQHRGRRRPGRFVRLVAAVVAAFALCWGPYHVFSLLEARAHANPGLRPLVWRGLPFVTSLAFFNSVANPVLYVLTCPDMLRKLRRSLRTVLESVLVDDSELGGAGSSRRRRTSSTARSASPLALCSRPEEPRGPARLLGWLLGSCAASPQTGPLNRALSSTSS
How it was run: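 Compound was first mixed with buffer, then 3H-PGD2 was added at 2.5 nM, and the reaction was started with hCRTH2 membranes from HEK293 cells at 20 μg/well. After 90 min at room temperature, mixtures were filtered and washed with ice-cold buffer, and retained radioactivity was counted.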

Structure (SMILES)	IC50 [1]	IC50 [2]
O=C(O)Cc1ccc(-c2ccc(F)c3c2CN(C(=O)OCc2ccccc2)CC3)c(OCC(F)(F)F)c1 [Example 411, 8-[4-Carboxymethyl-2-(2,2,2-trifluoro-ethoxy)-phenyl]-5-fluoro-3,4-dihydro-1H-isoquinoline-2-carboxylic acid benzyl ester]	13 nM	1 nM
CC(C)(C)Oc1ccc(CC(=O)O)cc1-c1ccc(F)c2c1CN(C(=O)OCc1ccccc1)CC2 [Example 419, 8-(2-tert-Butoxy-5-carboxymethyl-phenyl)-5-fluoro-3,4-dihydro-1H-isoquinoline-2-carboxylic acid benzyl ester]	35 nM	2.8 nM
CN(C)c1ccc(CC(=O)O)cc1-c1ccc(F)c2c1CN(C(=O)OCc1ccccc1)CC2 [Example 420, 8-(5-Carboxymethyl-2-dimethylamino-phenyl)-5-fluoro-3,4-dihydro-1H-isoquinoline-2-carboxylic acid benzyl ester]	17 nM	2.4 nM
CC(C)Oc1ccc(CC(=O)O)cc1-c1ccc(C#N)c2c1CN(C(=O)OCc1ccccc1)CC2 [Example 431, 8-(5-Carboxymethyl-2-isopropoxy-phenyl)-5-cyano-3,4-dihydro-1H-isoquinoline-2-carboxylic acid benzyl ester]	47 nM	1.4 nM
CCOc1ccc(CC(=O)O)cc1-c1ccc(F)c2c1CN(C(=O)NCc1ccccc1)CC2 [Example 438, [3-(2-Benzylcarbamoyl-5-fluoro-1,2,3,4-tetrahydro-isoquinolin-8-yl)-4-ethoxy-phenyl]-acetic acid]	14 nM	3.7 nM

Further compounds by falling IC50 [1], results first:

IC50 [1]	IC50 [2]	Structure (SMILES)
47 nM	1.8 nM	O=C(O)Cc1ccc(OC(F)F)c(-c2ccc(F)c3c2CN(C(=O)OCc2ccccc2)CC3)c1 [Example 412, 8-(5-Carboxymethyl-2-difluoromethoxy-phenyl)-5-fluoro-3,4-dihydro-1H-isoquinoline-2-carboxylic acid benzyl ester]
44 nM	0.8 nM	O=C(O)Cc1ccc(OCC(F)F)c(-c2ccc(F)c3c2CN(C(=O)OCc2ccccc2)CC3)c1 [Example 413, 8-[5-Carboxymethyl-2-(2,2-difluoro-ethoxy)-phenyl]-5-fluoro-3,4-dihydro-1H-isoquinoline-2-carboxylic acid benzyl ester]
16 nM	3.8 nM	O=C(O)Cc1ccc(OCC(F)(F)F)c(-c2ccc(F)c3c2CN(C(=O)OCc2ccccc2)CC3)c1 [Example 421, 8-[5-Carboxymethyl-2-(2,2,2-trifluoro-ethoxy)-phenyl]-5-fluoro-3,4-dihydro-1H-isoquinoline-2-carboxylic acid benzyl ester]
8 nM	8.5 nM	O=C(O)Cc1ccc(OCCF)c(-c2ccc(F)c3c2CN(C(=O)OCc2ccccc2)CC3)c1 [Example 422, 8-[5-Carboxymethyl-2-(2-fluoro-ethoxy)-phenyl]-5-fluoro-3,4-dihydro-1H-isoquinoline-2-carboxylic acid benzyl ester]
